In patent US20250186556A1, “COMBINATION THERAPY WITH IMMUNOMODULATORS, DYRK1A INHIBITORS, AND GLP1R AGONISTS FOR TYPE 1 DIABETES TREATMENT” (ICAHN SCHOOL OF MEDICINE AT MOUNT SINAI, priority 2022, published 2025):

How the values were obtained:
[1] = tested on: patients with new-onset type 1 diabetes; settings: for up to seven years following initial diagnosis; cited from earlier work
[2] = tested on: human β-cells; experiment: Analysis of human β-cell death in vitro (TUNEL/insulin staining); format: cell-based; settings: 10 μM harmine, 10 nM exendin-4, 24 hours, TUNEL
Description: Briefly, after washing the human islets with PBS twice, 200 μl pre-warmed Accutase (Corning) was added, and the tube was incubated at 37° C. for 10 minutes. Then, complete RPMI medium (RPMI with 5 mM D-glucose, 10% FBS, 100 units/ml penicillin, and 100 μg/ml streptomycin) was added, the sample was centrifuged at 1000 rpm for three min, the pellet was washed with PBS and centrifuged again at 1000 rpm for three min. The pellet was resuspended in complete RPMI medium and 50,000 cells/well were plated on 12-mm glass coverslips, placed in 24-well plates, and incubated at 37° C. and 5% CO2 for 24 hours. […] Cells were incubated at 37° C. and 5% CO2 for 24 hours. Then, cells were fixed in 4% paraformaldehyde and TUNEL (cell death marker) and insulin staining were performed using the DeadEnd Fluorometric TUNEL System (Promega), anti-proinsulin/C-peptide antibody (DSHB), and DAPI for nuclei detection. A minimum of 1,500 β-cells were examined per coverslip.

[3] = tested on: human β-cells; experiment: Human islet single cell RNA sequencing (scRNA-seq), gene set enrichment in β-cells; format: cell-based; settings: human islets, 10 μM harmine, 10 nM exendin-4, 6 h
Description: After treatment, human islets were washed twice with PBS and centrifuged at 300 rpm for three min. After removing the PBS, 200 μl pre-warmed Accutase was added and the islets were incubated at 37° C. for 10 minutes. Then, complete RPMI medium was added, the sample centrifuged at 1000 rpm for three min, and the pellet was washed with PBS. Cells were then resuspended in binding buffer (Miltenyi Biotec) and dead cell removal beads, the tube was incubated for 15 minutes at room temperature and the cell suspension applied onto the dead cell removal column (Miltenyi Biotec), which was attached to the MACS separator. […]
Cell samples were prepared according to the user guide of 10× Genomics Single Cell 3′ V3.1 Reagent Kit, processed with 10× Genomic Chromium Controller for partitioning and barcoding, followed by the cDNA library generation. The total cell concentration analyzed by the Countess 3 was then sequenced by the NovaSeq 6000 System (Illumina). […] After the 10×, h5 format file was generated, the data were analyzed on the R language platform with Seurat package V.4.0. […]
After assessment of the data quality control parameters as above, integrated scRNA-data were created with Seurat's SCTransform function without allocating method parameters. […] After enrichment scores were calculated for each single cell, they were added to the Meta data for analysis and visualization by dotplot.

| Compound | loss of β-cell function [1] | human β-cell death induced by thapsigargin ([2]; 500 nM thapsigargin) | human β-cell death induced by cytokines ([2]; cytokines IL-1β, TNF-α, IFN-γ) | inhibitory HLA-E expression in β-cells treated with cytokines [3] | expression of pro-inflammatory, intrinsic and extrinsic apoptosis, HLA class I, chemokines CXCL9-11 and interferon regulatory factor 1-9 signaling pathways in β-cells treated with cytokines ([3]; GSEA) |
| --- | --- | --- | --- | --- | --- |
| teplizumab: humanized, non-mitogenic aglycosylated anti-CD3 monoclonal antibody | reduces the loss of β-cell function | – | – | – | – |
| COc1ccc2c(c1)[nH]c1c(C)nccc12 [harmine] | – | non-significant, partial protection | non-significant, partial protection | increased | not with the drugs alone |
